Source: PMC3505271 (Nature chemical biology, 2012)

Experiments:
[1] = target: AnaPS (Aspergillus fischeri, UniProt A1DN09); assay: amino acid-dependent ATP-[…]PPi exchange; assay type: biochemical; settings: adenylation domain substrate; ATP co-substrate
[2] = target: TqaA (Penicillium aethiopicum, UniProt F1CWE4); assay: amino acid-dependent ATP-[…]PPi exchange; assay type: biochemical; settings: adenylation domain substrate; ATP co-substrate

AnaPS, sequence (A1DN09 whole entry, the tested form may be a part): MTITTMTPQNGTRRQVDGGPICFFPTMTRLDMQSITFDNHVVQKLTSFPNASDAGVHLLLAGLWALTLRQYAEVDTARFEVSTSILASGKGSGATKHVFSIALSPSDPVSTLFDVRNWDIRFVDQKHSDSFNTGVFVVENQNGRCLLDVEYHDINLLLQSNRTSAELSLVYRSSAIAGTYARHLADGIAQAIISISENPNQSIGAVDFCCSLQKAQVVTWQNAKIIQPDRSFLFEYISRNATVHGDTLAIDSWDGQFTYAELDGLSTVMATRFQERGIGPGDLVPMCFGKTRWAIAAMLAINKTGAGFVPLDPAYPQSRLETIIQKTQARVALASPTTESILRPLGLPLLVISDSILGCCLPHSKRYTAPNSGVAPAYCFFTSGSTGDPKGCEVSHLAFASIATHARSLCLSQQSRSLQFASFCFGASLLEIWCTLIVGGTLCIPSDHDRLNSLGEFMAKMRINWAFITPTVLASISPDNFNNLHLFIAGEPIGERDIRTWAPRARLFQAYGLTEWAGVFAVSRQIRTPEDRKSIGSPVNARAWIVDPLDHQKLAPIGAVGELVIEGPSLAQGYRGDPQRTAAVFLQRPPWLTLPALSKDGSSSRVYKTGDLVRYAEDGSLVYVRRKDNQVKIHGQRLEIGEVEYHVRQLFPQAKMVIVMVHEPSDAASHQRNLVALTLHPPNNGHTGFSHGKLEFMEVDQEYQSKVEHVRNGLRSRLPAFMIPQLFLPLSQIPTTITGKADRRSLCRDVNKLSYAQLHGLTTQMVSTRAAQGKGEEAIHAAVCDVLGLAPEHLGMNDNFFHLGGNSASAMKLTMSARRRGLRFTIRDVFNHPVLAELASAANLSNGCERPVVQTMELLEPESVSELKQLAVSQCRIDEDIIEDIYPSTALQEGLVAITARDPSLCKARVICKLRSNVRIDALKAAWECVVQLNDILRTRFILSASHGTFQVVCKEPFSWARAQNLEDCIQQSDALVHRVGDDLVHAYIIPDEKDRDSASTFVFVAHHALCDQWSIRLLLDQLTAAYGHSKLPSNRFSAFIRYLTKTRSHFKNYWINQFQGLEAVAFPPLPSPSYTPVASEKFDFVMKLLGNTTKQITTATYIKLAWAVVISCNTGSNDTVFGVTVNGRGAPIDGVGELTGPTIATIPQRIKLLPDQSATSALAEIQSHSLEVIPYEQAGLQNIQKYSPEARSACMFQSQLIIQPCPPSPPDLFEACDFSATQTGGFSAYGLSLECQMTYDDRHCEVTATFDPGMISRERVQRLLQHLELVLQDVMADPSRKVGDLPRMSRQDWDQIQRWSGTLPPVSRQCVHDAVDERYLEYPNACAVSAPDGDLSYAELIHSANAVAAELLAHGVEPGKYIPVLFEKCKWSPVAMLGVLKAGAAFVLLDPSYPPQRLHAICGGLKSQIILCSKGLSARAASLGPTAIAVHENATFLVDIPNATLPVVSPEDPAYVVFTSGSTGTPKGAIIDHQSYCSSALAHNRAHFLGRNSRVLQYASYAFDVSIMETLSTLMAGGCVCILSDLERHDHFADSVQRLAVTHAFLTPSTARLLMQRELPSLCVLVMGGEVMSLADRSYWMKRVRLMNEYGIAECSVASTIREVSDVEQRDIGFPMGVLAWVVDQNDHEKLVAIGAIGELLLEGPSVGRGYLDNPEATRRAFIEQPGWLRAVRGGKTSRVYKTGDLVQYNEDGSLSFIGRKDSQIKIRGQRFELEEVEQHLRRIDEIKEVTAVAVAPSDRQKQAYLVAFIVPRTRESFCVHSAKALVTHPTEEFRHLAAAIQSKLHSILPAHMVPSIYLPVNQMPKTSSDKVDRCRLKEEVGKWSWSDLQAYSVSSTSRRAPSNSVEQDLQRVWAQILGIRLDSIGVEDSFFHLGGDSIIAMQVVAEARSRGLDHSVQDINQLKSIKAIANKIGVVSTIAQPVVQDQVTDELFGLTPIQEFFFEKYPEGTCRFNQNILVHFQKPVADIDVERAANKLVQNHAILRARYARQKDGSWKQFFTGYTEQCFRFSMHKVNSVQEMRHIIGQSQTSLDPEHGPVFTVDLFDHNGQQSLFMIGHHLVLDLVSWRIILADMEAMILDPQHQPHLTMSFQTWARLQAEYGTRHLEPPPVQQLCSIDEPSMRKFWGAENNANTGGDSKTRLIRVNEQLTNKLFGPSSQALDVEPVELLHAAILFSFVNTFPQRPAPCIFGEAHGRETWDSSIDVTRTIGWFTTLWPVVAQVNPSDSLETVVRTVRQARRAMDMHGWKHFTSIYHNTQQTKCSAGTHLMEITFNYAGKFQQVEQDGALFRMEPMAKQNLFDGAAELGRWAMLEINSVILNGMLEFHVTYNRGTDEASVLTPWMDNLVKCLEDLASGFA

Structure (SMILES)	amino acid-dependent ATP-[32P]PPi exchange [1]	amino acid-dependent ATP-[32P]PPi exchange [2]
N[C@@H](Cc1c[nH]c2ccccc12)C(=O)O [L-tryptophan]	Similarly, AnaPS A domains activated Ant and L-Trp	–
Nc1ccccc1C(=O)O [anthranilate]	Similarly, AnaPS A domains activated Ant and L-Trp	TqaA specifically activated the three building blocks Ant, L-Trp and L-Ala
